# Measured values as given in patent US20070225253A1, “Use of a trioxopyrimidine for the treatment and prevention of bronchial inflammatory diseases” (priority 2004, published 2007).
# Where “and” joins values, the source holds several entries; their conditions need not be identical. Equal entries are not always repeated. Where two headings read alike, the source gives them in different places.
# Experiments:
# [1] = Pharmacokinetics after intravenous administration to sheep; type: in vivo; details: I.V. solution, 5 mg/kg
# Protocol: The Compound I/HP-β-CD intravenous solution was obtained by dissolving CompoundI (10 mg/ml) in a solution containing HP-β-CD (200 mM), L-lysine (20 mM) and water for injection. The osmolality (about 325 mOsmol/kg) and the pH (about 8.2) values of this solution are compatible with an intravenous injection. The solution was sterilized by passing through a sterile 0.20 μm cellulose acetate filter under aseptic conditions.
# Six healthy sheep (2 males and 4 females) ranging from 45 to 82 kg of body weight were used as experimental animals. During the test, the animals were fed and watered ad libitum.
# The experimental study, which was realized following the scheme of Table 3, included a randomized two-way cross-over design for oral administration followed by an intravenous administration. A wash-out period of 3 weeks was allowed between each administration.
# For the intravenous dosage form, all six sheep received 5 mg of Compound I/kg of body weight. The solution was administered through the left jugular vein and blood samples were taken from the right jugular vein before and 5, 10, 15, 20, 30, 45 min, 1, 1.5, 2, 3, 4, 5, 6, 8, 10, 12, 24, 28, 32, 48, 72, 96, 120, 144, 168 h after starting the intravenous administration.
# All blood samples were centrifuged and the serum were stored at −80° C. until assayed.
# A fully automated method was developed for the LC determination of this compound in serum. Sample clean-up was performed by on-line coupling of a pre-column packed with restricted access material (RAM), namely LiChrospher RP-8ADS (alkyl diol silica), to the analytical column by means of the column-switching technique. The ADS sorbents belong to the group of internal surface reversed-phase supports and have been applied successfully for the clean-up of biological samples prior to LC analysis (Yu, Z., and Westerlund, D., Chromatographia 44 (1997) 589-594; Hubert, Ph., et al., S. T. P. Pharma Pratiques 9 (1999) 160-180; Souverain, S., et al., Journal of Chromatography B 801 (2004) 141-156). The operating conditions are described in a previous paper (Chiap, P., et al., Journal of Chromatography B 817 (2005), 109-117). The method was fully validated according to a novel approach based on accuracy profiles taking into account the total measurement error (Hubert, P., et al., Analytica Chimica Acta 391 (1999) 135-148; Hubert, Ph., et al., S. T. P. Pharma Pratiques 13 (2003) 27-64; Hubert, Ph., et al., J Pharm Biomed. Anal. 36 (2004) 579-586.
# For the bioanalytical study, the dosing range of the method had to be increased until 50 μg/ml due to high concentrations to be determined. A partial revalidation was performed and good results were obtained with respect to response function, trueness, precision, accuracy and linearity.
# For the intravenous administration study, the pharmacokinetic parameters were determined for each animal using a linear two-compartment model with first-order distribution and elimination (Boroujerdi, M., Pharmacokinetics, Principles and Applications. McGrow-Hill Companies, USA, 2002). The areas under the curve values (AUCs0-168) were calculated by linear trapezoidal rule during the sampling period. The AUC extrapolated until infinite values (AUCs0-∞), the total body clearance values (Clt), the biologic half-life (T1/2β) and the overall volume of distribution (Vdt) were calculated using conventional equations associated with compartmental analysis (Boroujerdi, M., Pharmacokinetics, Principles and Applications, McGrow-Hill Companies, USA, 2002).
# [2] = target: T1, Human MMP-1 (Homo sapiens, UniProt P03956); experiment: MMP enzymatic activity, modified fluorescence assay (DNP-substrate); type: biochemical
# T1 sequence (P03956 100-469): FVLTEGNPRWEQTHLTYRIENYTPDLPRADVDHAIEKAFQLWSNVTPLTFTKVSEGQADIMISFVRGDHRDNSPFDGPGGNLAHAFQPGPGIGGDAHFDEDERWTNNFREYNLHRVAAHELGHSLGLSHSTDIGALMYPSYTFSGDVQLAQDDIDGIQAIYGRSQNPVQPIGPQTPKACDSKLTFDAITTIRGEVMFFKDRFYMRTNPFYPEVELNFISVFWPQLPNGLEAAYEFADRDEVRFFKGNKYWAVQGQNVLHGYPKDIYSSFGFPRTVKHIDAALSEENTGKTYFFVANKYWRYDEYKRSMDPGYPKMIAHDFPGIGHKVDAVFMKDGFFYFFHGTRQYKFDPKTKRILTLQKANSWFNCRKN
# Protocol: IC50 values are measured by an in vitro assay for MMP enzymatic activity. […] This assay is based on the determination of MMP enzymatic activity on a dinitrophenol substrate and fluorescence measurement of the substrate after cleaving by MMPs.
# Human MMP-1, MMP-2, MMP-3, MMP-9 and MMP-14 are commercially available (e.g. Calbiochem). The pro-enzymes were activated with 1 mM APMA (incubation for 30 min at 37° C.) immediately before testing. Activated enzyme is diluted to 100 ng/ml in incubation buffer (50 mM Tris, 100 mM NaCl, 10 mM CaCl2, pH 7.6). The compounds were dissolved in 100% DMSO.
# The test tube contains 970 μl incubation buffer, 10 μl inhibitor solution and 10 μl enzyme solution. The reaction was started by adding the 10 μl substrate solution.
# [3] = Phase solubility study of Compound I with HP-β-CD and L-lysine; type: physicochemical; details: for solubility at 7 days: 25 °C, thermodynamic from solid
# Protocol: Solubility studies were performed as described by Higuchi, T., and Connors, K. A., Advances in Analytical Chemistry and Instrumentation 4 (1965) 117-212. Excess amounts of Compound I were added to increasing concentrations of HP-β-CD (0-200 mM) in 5 ml dissolution media, either purified water or L-lysine solutions (50 mM or 500 mM). The glass containers were sealed and the suspensions were shaken in a water-bath at 25° C. until complexation equilibrium was reached (7 days). An aliquot was filtered through a 0.45 μm PVDF membrane filter and assayed for Compound I content by a validated liquid chromatography (LC) method.
structure (smiles),measurement,setting,value
"O=C1NC(=O)C(c2ccc(-c3ccccc3)cc2)(N2CCN(c3ccc([N+](=O)[O-])cc3)CC2)C(=O)N1 [Compound I, 5-Biphenyl-4-yl-5-[4-(4-nitro-phenyl)-piperazin-1-yl]pyrimidine-2,4,6-trione]",distribution phase,[1]; sheep,about 30 minutes
same,AUC(0-inf),"[1]; both sexes, serum, iv, sheep n = 6, mean ± S.D.",859 ± 212 µg·h/mL
same,AUC(0-t),"[1]; both sexes, serum, iv, sheep n = 6, mean ± S.D., read-out: AUC0-168 h",858 ± 212 µg·h/mL
same,clearance,"[1]; both sexes, sheep, serum, iv, sheep n = 6, mean ± S.D., read-out: Clt (total body clearance) (converted)",~5.97 mL/min
same,half-life,"[1]; both sexes, sheep, serum, iv, sheep n = 6, mean ± S.D., read-out: T1/2β (biologic half-life) (converted)",~930 min
same,Vd,"[1]; both sexes, sheep, serum, iv, sheep n = 6, mean ± S.D., read-out: Vdt (overall volume of distribution)",~8 L
same,IC50,[2],53 µM
same,solubility at 7 days,"[3]; 50 mM L-lysine solution with 200 mM HP-β-CD, aqueous with cosolvent or surfactant or cyclodextrin, L-lysine 50 mM, 25° C., read-out: Solubility with HP-β-CD (200 mM)",17100 µg/mL
same,solubility at 7 days,"[3]; 50 mM L-lysine solution, no cyclodextrin, aqueous buffer, L-lysine 50 mM, 25° C., read-out: Solubility without CD",50 µg/mL
same,solubility at 7 days,"[3]; 200 mM HP-β-CD in purified water, aqueous with cosolvent or surfactant or cyclodextrin, purified water, 25° C., read-out: Solubility with HP-β-CD (200 mM)",5530 µg/mL
same,solubility at 7 days,"[3]; 200 mM HP-β-CD in purified water, no L-lysine, aqueous with cosolvent or surfactant or cyclodextrin, solubility in a 200 mM HP-β-CD solution, absence of L-lysine",~5500 µg/mL and ~11000 µM
same,increase of aqueous solubility,"[3]; 200 mM HP-β-CD, no L-lysine, vs purified water","approximately 10,000 fold"
same,solubility at 7 days,"[3]; 500 mM L-lysine solution with 200 mM HP-β-CD, aqueous with cosolvent or surfactant or cyclodextrin, 500 mM L-lysine and 200 mM HP-β-CD, read-out: solubility",38100 µg/mL
same,solubility at 7 days,"[3]; 500 mM L-lysine solution with 200 mM HP-β-CD, aqueous with cosolvent or surfactant or cyclodextrin, L-lysine 500 mM, 25° C., read-out: Solubility with HP-β-CD (200 mM)",38100 µg/mL
same,solubility at 7 days,"[3]; 500 mM L-lysine solution, no cyclodextrin, aqueous buffer, L-lysine 500 mM, 25° C., read-out: Solubility without CD",90 µg/mL
same,solubility at 7 days,"[3]; 500 mM L-lysine solution, no cyclodextrin, aqueous buffer, L-lysine (500 mM) separately, no CD, read-out: solubility",90 µg/mL
same,increase of aqueous solubility,[3]; 500 mM of L-lysine and 200 mM of HP-β-CD,"70,000 fold"
same,solubility at 7 days,"[3]; purified water, no cyclodextrin, water, purified water, 25° C., read-out: Solubility without CD",0.56 µg/mL
